The source of these data is ChEMBL document CHEMBL5260848, “Recent advancements in the development of bioactive pyrazoline derivatives” (Eur J Med Chem, 2020).

Converted amounts (≈) assume the structure as drawn. Where only a bound is given, the exact number is not on record here.

Data set [1] in a line: Cytotoxicity against rat PC-12 cells assessed as reduction in cell viability. In kind it is toxicity, cell-based.
The subject of another data set is PC-12. The experiment in a line: Cytotoxicity against rat PC-12 cells assessed as reduction in cell viability relative to control. Type of data set: toxicity, cell-based.
Another data set relates to Escherichia coli. The data set can be described thus: Antibacterial activity against Escherichia coli incubated for 24 hrs by disc diffusion method. Type of data set: functional.
In another data set the test system is Aspergillus fumigatus. The experiment in a line: Antifungal activity against Aspergillus fumigatus incubated for 24 hrs by disc diffusion method. Type of data set: functional. A general note: A growth-free zone around the sample is the usual read-out of agar diffusion tests.
The subject of the next data set is Aspergillus niger. The experiment in a line: Antifungal activity against Aspergillus niger incubated for 24 hrs by disc diffusion method. In kind it is functional.
In another data set the test system is Aspergillus flavus. The experiment in a line: Antifungal activity against Aspergillus flavus incubated for 24 hrs by disc diffusion method. Type of data set: functional.
The subject of data set [2] is Mycobacterium tuberculosis. The data set can be described thus: microbe, parasite or virus in culture. As to conditions: 120 h.
The test system of the next data set is Staphylococcus aureus. The data set can be described thus: microbe, parasite or virus in culture. To be noted: 24 h.
The next data set has as its system Bacillus subtilis. The experiment in a line: microbe, parasite or virus in culture. As to conditions: 24 h.
A further data set has as its system Pseudomonas aeruginosa. The experiment in a line: microbe, parasite or virus in culture. To be noted: 24 h.
The next data set has as its system Candida albicans. The experiment in a line: microbe, parasite or virus in culture. As to conditions: 24 h.

Broadly, the IC50 is the midpoint of a concentration-inhibition curve. For the compound `NS(=O)(=O)c1ccc(N2N=C(c3cccs3)CC2c2ccc3c(c2)OCO3)cc1` (stereo not given), the 50% inhibitory concentration (IC50) in [1] came out at 12 µg/mL (≈ 28.1 µM). Besides, the Activity in the data set with PC-12 is given as 3%.
The matching figures for `N#Cc1ccc(N2N=C(c3cccs3)CC2c2ccc3c(c2)OCO3)cc1` (stereo not given): 12 µg/mL (≈ 32.1 µM) and 3%.
Regarding `Brc1ccc(N2N=C(c3cccs3)CC2c2ccc3c(c2)OCO3)cc1` (stereo not given), the 50% inhibitory concentration (IC50) in data set [1] amounted to 12 µg/mL (≈ 28.1 µM). Moreover, in the data set on PC-12, the Activity is recorded as 3%.
In the case of `Cc1ccc(N2N=C(c3cccs3)CC2c2ccc3c(c2)OCO3)cc1` (stereo not given), the IC50 in data set [1] turned out to be 12 µg/mL (≈ 33.1 µM). Also, the Activity in the data set on PC-12 came to 3%.
For `c1ccc(N2N=C(c3cccs3)CC2c2ccc3c(c2)OCO3)cc1` (stereo not given), the half-maximal inhibitory concentration (IC50) in data set [1] was 12 µg/mL (≈ 34.4 µM). Besides, the Activity with PC-12 is 3%.
On to `Clc1ccc(N2N=C(c3cccs3)CC2c2ccc3c(c2)OCO3)cc1` (stereo not given), for which the half-inhibitory concentration (IC50) in data set [1] was determined as 12 µg/mL (≈ 31.3 µM). In the data set with PC-12, the Activity turned out to be 3%.
The matching figures for `COc1ccc(N2N=C(c3ccco3)CC2c2ccc(C)cc2)cc1` (stereo not given): 12 µg/mL (≈ 36.1 µM) and 3%.
As for `COc1ccc(C2CC(c3ccccc3)=NN2C(=O)NNS(=O)(=O)c2ccc(F)cc2F)cc1` (stereo not given), the MIC was found to be 25 µg/mL (≈ 51.4 µM) with Escherichia coli; 25 µg/mL (≈ 51.4 µM) against Aspergillus fumigatus; 25 µg/mL (≈ 51.4 µM) in the data set with Aspergillus niger; 25 µg/mL (≈ 51.4 µM) against Aspergillus flavus; 0.8 µg/mL (≈ 1.64 µM) in data set [2]; 25 µg/mL (≈ 51.4 µM) in the data set with Staphylococcus aureus. Besides, the MIC in the data set on Bacillus subtilis, against Pseudomonas aeruginosa and in the data set with Candida albicans was 25 µg/mL (≈ 51.4 µM) each time.
Turning to `Cc1ccc(C2CC(c3ccco3)=NN2c2ccc(Br)cc2)cc1` (stereo not given), in data set [1], the IC50 stood at 12 µg/mL (≈ 31.5 µM). Further, the Activity with PC-12 worked out at 3%.
As for `O=C(NNS(=O)(=O)c1ccc(F)cc1F)N1N=C(c2ccccc2)CC1c1ccc(Br)cc1` (stereo not given), the MIC against Escherichia coli was 25 µg/mL (≈ 46.7 µM); against Aspergillus fumigatus, 25 µg/mL (≈ 46.7 µM); against Aspergillus niger, 25 µg/mL (≈ 46.7 µM); with Aspergillus flavus, 25 µg/mL (≈ 46.7 µM); in data set [2], 0.8 µg/mL (≈ 1.49 µM); with Staphylococcus aureus, 25 µg/mL (≈ 46.7 µM). Moreover, the MIC in the data set on Bacillus subtilis, against Pseudomonas aeruginosa and in the data set with Candida albicans was 25 µg/mL (≈ 46.7 µM) each time.
With `Cc1ccc(C2CC(c3ccco3)=NN2c2ccc(C)cc2)cc1` (stereo not given), the 50% inhibitory concentration (IC50) in data set [1] was 12 µg/mL (≈ 37.9 µM). Besides, in the data set on PC-12, the Activity was 3%.
The matching figures for `Cc1ccc(C2CC(c3ccco3)=NN2c2ccc(S(C)(=O)=O)cc2)cc1` (stereo not given): above 400 µg/mL and 80%.
As for `CSc1ccc(C2CC(c3ccccc3)=NN2C(=O)NNS(=O)(=O)c2ccccc2)cc1` (stereo not given), the MIC worked out at 25 µg/mL (≈ 53.6 µM) in the data set with Escherichia coli; 25 µg/mL (≈ 53.6 µM) against Aspergillus fumigatus; 25 µg/mL (≈ 53.6 µM) in the data set on Aspergillus niger; 25 µg/mL (≈ 53.6 µM) with Aspergillus flavus; 0.8 µg/mL (≈ 1.71 µM) in data set [2]; 25 µg/mL (≈ 53.6 µM) with Staphylococcus aureus. Moreover, the MIC in the data set on Bacillus subtilis, with Pseudomonas aeruginosa and in the data set with Candida albicans was 25 µg/mL (≈ 53.6 µM) in each case.
As for `Cc1ccc(C2CC(c3ccco3)=NN2c2ccc(C#N)cc2)cc1` (stereo not given), in [1], the IC50 was 12 µg/mL (≈ 36.7 µM). Moreover, in the data set on PC-12, the Activity was found to be 3%.
Take `Cc1ccc(C2CC(c3ccccc3)=NN2C(=O)NNS(=O)(=O)c2ccc(F)cc2F)cc1` (stereo not given): the MIC against Escherichia coli was determined as 25 µg/mL (≈ 53.1 µM); in the data set on Aspergillus fumigatus, 25 µg/mL (≈ 53.1 µM); in the data set with Aspergillus niger, 25 µg/mL (≈ 53.1 µM); in the data set on Aspergillus flavus it was 25 µg/mL (≈ 53.1 µM); in [2], 0.8 µg/mL (≈ 1.7 µM); against Staphylococcus aureus, 25 µg/mL (≈ 53.1 µM). The MIC with Bacillus subtilis, with Pseudomonas aeruginosa and in the data set on Candida albicans was 25 µg/mL (≈ 53.1 µM) throughout.
Consider `COc1ccc(C2CC(c3ccccc3)=NN2C(=O)NNS(=O)(=O)c2ccc(F)cc2)cc1` (stereo not given), for which the MIC amounted to 25 µg/mL (≈ 53.4 µM) with Escherichia coli; 25 µg/mL (≈ 53.4 µM) against Aspergillus fumigatus; 25 µg/mL (≈ 53.4 µM) in the data set on Aspergillus niger; 25 µg/mL (≈ 53.4 µM) in the data set on Aspergillus flavus; 0.8 µg/mL (≈ 1.71 µM) in data set [2]; 25 µg/mL (≈ 53.4 µM) against Staphylococcus aureus. Also, the MIC against Bacillus subtilis, against Pseudomonas aeruginosa and in the data set on Candida albicans was 25 µg/mL (≈ 53.4 µM) in each case.
Turning to `O=C(NNS(=O)(=O)c1ccc(F)cc1F)N1N=C(c2ccccc2)CC1c1ccccc1` (stereo not given), the MIC was found to be 25 µg/mL (≈ 54.8 µM) in the data set with Escherichia coli; 25 µg/mL (≈ 54.8 µM) with Aspergillus fumigatus; 25 µg/mL (≈ 54.8 µM) against Aspergillus niger; 25 µg/mL (≈ 54.8 µM) in the data set on Aspergillus flavus; 0.8 µg/mL (≈ 1.75 µM) in [2]; 25 µg/mL (≈ 54.8 µM) in the data set with Staphylococcus aureus. For the same compound, the MIC with Bacillus subtilis, with Pseudomonas aeruginosa and against Candida albicans was 25 µg/mL (≈ 54.8 µM) throughout.
For the compound `O=C(NNS(=O)(=O)c1ccc(F)cc1)N1N=C(c2ccccc2)CC1c1ccc(Cl)cc1` (stereo not given), the MIC worked out at 25 µg/mL (≈ 52.9 µM) against Escherichia coli; 25 µg/mL (≈ 52.9 µM) in the data set with Aspergillus fumigatus; 25 µg/mL (≈ 52.9 µM) in the data set with Aspergillus niger; 25 µg/mL (≈ 52.9 µM) against Aspergillus flavus; 0.8 µg/mL (≈ 1.69 µM) in [2]; 25 µg/mL (≈ 52.9 µM) in the data set with Staphylococcus aureus. Also, the MIC against Bacillus subtilis, with Pseudomonas aeruginosa and in the data set on Candida albicans was 25 µg/mL (≈ 52.9 µM) throughout.
